Results on one molecule are retold here after patent US11819257B2, “Compositions, treatment systems and methods for improved cooling of lipid-rich tissue” (Zeltiq Aesthetics, Inc., priority 2014, dated 2023).

The assay deals with skin at abdominal treatment sites. Kind of assay: Clinical detection of freeze events during abdominal CoolSculpting cooling treatment after pre-treatment with cryoprotectant and mechanical stimulation. Format: in vivo, human. The note with it: patients, 14 total cycles at −15° C. applicator set point, 60 minute cycle, 3 cc topical, brushed for 2 minutes before cooling. An excerpt:
This section describes an example of the clinical use of pre-treating the skin of a patient at a treatment site with mechanical stimulation in the presence of topically applied cryoprotectant prior to applying cooling treatment for affecting subcutaneous lipid-rich cells. Additional embodiments of the present technology may be practiced with features similar to or different than those described with respect to this example. Among other features of the present technology, this example illustrates that mechanical stimulation in the presence of cryoprotectant prior to cooling treatment may have utility in the prevention of freezing events or damage when cooling subcutaneous lipid-rich tissue for aesthetic or health-related reasons. Thirteen patients scheduled for abdominoplasty where offered to undergo a CoolSculpting® treatment on abdominal treatment sites. Each patient underwent two CoolSculpting® treatment sessions having a 60 minute cycle time and a −15° C. applicator temperature set point. The vacuum was set at 60 per typical recommended settings and a standard CoolSculpting® gel pad and liner were used per instructions. Six patients were assigned to a control group and had no pre-treatment performed prior to the CoolSculpting® treatment. […] Freeze events were detected using a freeze detection algorithm such as that described in U.S. Pat. No. 8,285,390.

As to `CC(O)CO` (centres unmarked) [100% PG, propylene glycol], the “Probability of Freeze Event” value came to 0%. The “Freeze Events” value (freeze detection algorithm) was determined as 0.
